Measurements reported in article PMC8208971, “Copper-binding anticancer peptides from the piscidin family: an expanded mechanism that encompasses physical and chemical bilayer disruption” (Scientific Reports, 2021).
Where two headings read alike, the source gives them in different places. No end group written: not given here.

Key:
[1] = tested on: HT1080 (fibrosarcoma) cancer cells; assay: MTS cytotoxicity assay on HT1080 cells; format: cell-based
[2] = tested on: normal MRC-5 (lung) fibroblast cells; assay: Cytotoxicity assay on normal MRC-5 fibroblasts; format: cell-based; settings: 95% confidence interval in parentheses; for apo-P1 given as 50% inhibition at
From the text: A549 human lung cancer cells were obtained from ATCC (ATCC CCL-185) and were maintained in Dulbecco’s Modified Eagle’s Medium (DMEM-F12, Lonza, catalog no. 12-719F) supplemented with 10% heat inactivated FBS and 1% Penn-Step. The HT1080 and MRC-5 cells were purchased from ATCC (catalog no. CCL-121 and CCL-171, respectively) and grown in Eagle’s Minimum Essential Medium (ATCC, catalog no. 30-2003TM) that was supplemented with FBS (ATCC, catalog no. 30-2021TM) such that the medium contained 10% FBS. The MDA-MB-231 and HeLa cells were obtained from ATCC (ATCC, catalog no. HTB-26 and CCL-2, respectively) and maintained in DMEM supplemented with 10% FBS. All cell cultures were grown at 37.5 °C in a humidified 5% CO2 atmosphere.
The cytotoxicity assays followed well established procedure, with the details given in the Supplementary Information. The assays were performed in triplicates using 96 well plates Cell viability was calculated using the equation: % viability = [(AT-AB)/(AC-AB)] × 100, where AT is the absorbance of the treatment well, AB is the average background absorbance measured from three wells containing only media, and AC is the absorbance of the […] control well, which received only 100 µL of media and 40 µL of MTT solution (i.e. no peptide). Averages and error bars were calculated as the mean + / − standard deviation based on triplicates. The IC50 values were obtained by fitting the percentage viability (% viability) vs Log (M) concentration of peptides to generate inhibitor dose response curve using the GraphPad Prism software. The curves were fitted using a least-squares minimization method. Individual data points on the graphs are provided as the mean (± standard deviation) from the triplicate % viability values. The GraphPad Prism algorithm converted the logIC50 into IC50 and used the standard error of the mean on the logIC50 to yield the 95% confidence interval for the logIC50 and IC50.
P1-Cu2+ and P3-Cu2+ were assayed on normal MRC-5 (lung) fibroblast cells (ATTC catalog no CCL-171), giving
given in parentheses. […]

[3] = tested on: A549 human lung cancer cells; assay: MTT cytotoxicity assay on A549 cells; format: cell-based; settings: for Factor by which metallation with Cu^2+ increases efficacy, A549: from average IC50 values, apo vs Cu^2+-bound
[4] = tested on: normal MRC-5 (lung) fibroblast cells; parameters: dose or concentration left out as unconfirmed; settings: at about; ref Lin et al.1; cited from earlier work
From the text: (§1) Tested at up to 10 µ mol/L ...

[5] = tested on: MDA-MB-231 (breast) cancer cells; format: cell-based; settings: for IC50: 24 h
[6] = SPR/EIS on tethered bilayer membrane (membrane permeation); settings: POPC tBLM, Tris 20 mmol/L, 50 mmol/L NaCl, pH 7.4; steps of 0.1 μmol/L, 10 min each
Description: Planar, tethered bilayer membranes (tBLM) supported on gold-coated surfaces (Fig. 2C) were made using 1-palmitoyl-2-oleoyl-sn-glycero-3-phosphocholine (POPC) to mimic cancer cell membranes[80],[81]. Combined, surface plasmon resonance (SPR)/electrical impedance spectroscopy (EIS) measurements (Fig. 3) were conducted by injecting the peptide in small increments while simultaneously observing (1) the kinetics associated with the peptides binding to the bilayer (SPR) and (2) the formation of peptide-lined defects that increase membrane permeation and conductance (EIS). […]
SPR/EIS measurements were carried out on tethered bilayer membrane (tBLM) using a custom-built instrument previously described (Fig. 2B)[123],[124]. […] Several POPC tBLMs were assembled on the gold surfaces using thiolated polyethyleneglycol linker molecules (1,2-di-O-myristyl-3-[ω-mercaptohexa(ethylene oxide) glycerol] (WC14) and β-mercaptoethanol (βME) at a ratio of 70:30 βME:WC14. The tBLMs were equilibrated in Tris buffer (20 mmol/L, 50 mmol/L NaCl, pH 7.4) and allowed to rest until both SPR and EIS signals were stable, before peptide injection. Two types of measurements were done. In the first type (Fig. 3), the peptide concentration was increased gradually, in steps of 0.1 μmol/L, and the SPR/EIS was monitored for 10 min after each addition. […]

[7] = Lipid oxidation, absorbance at 234 nm; settings: SUVs 0.20 mg/mL, P/L = 1:10 (26 µmol/L), 4 mmol/L phosphate pH 7.8, 24 h exposure to air, triplicates
From the text: It has long been known that certain divalent metal ions, especially iron and copper, promote lipid peroxidation (oxidative deterioration of polyunsaturated fatty acids), a mechanism that has been strongly associated with cellular injury and death. Divalent transition-metal ions participate in Fenton-like chemical reactions produces ROS (e.g., hydroxyl radicals, superoxide) that can oxidize double bonds within the membrane. Here, to learn about the possible piscidin/Cu^2+-mediated oxidation of double bonds in lipid bilayers, we used absorbance and mass spectrometry to measure the formation of the oxidation products in small unilamellar vesicles (SUV) constituted of di-linoleoyl-sn-glycero-3-phosphocholine (DLPC) and POPG mixed in a 3:1 molar ratio and prepared at a concentration of 0.50 mg total lipid/mL. We first tested the ability of free Cu^2+ to oxidize the double bonds within the liposomes. Increasing amounts of Cu^2+ for a fixed amount of lipids (expressed as Cu/L, the molar ratio of Cu^2+ to total lipid) were mixed with the SUVs and the absorbance was measured at λ = 234 nm (Fig. 7A) (corresponding to λmax for the conjugated dienes that appear in lipid oxidation products)[92],[93]. Because molecular oxygen (O2) found in the atmosphere readily dissolves in the bilayer, no exogenous oxidant is needed to initiate the oxidation of the double bonds. […]

[8] = tested on: HGF-1 (gingival) fibroblast cells; settings: tested at up; no significant inhibitory effects; ref Cheng et al.2; cited from earlier work
From the text: as §1

[9] = tested on: OMF (mucosal) fibroblast cells; settings: tested at up to 10 mol/L; no significant inhibitory effects; ref Cheng et al.2; cited from earlier work
From the text: as §1

[10] = tested on: HeLa (cervical) cancer cells; assay: MTS cytotoxicity assay on HeLa cells; format: cell-based; settings: 24 h treatment, triplicates, 95% CI in parentheses, for P3 first data point at 0.16 µmol/L not used, holo-forms 1:1 CuCl2

In the case of `[Cl][Cu][Cl]` [Free Cu^2+, CuCl2, reference compound], the “Cytotoxicity of free Cu^2+” value ([1]; CuCl2 tested at up to 30 µmol/L, HT1080 cells, same conditions as the peptides (Fig. S1B)) is reported as “not cytotoxic”.
For “FFHHIFRGIVHVGKTIHRLVTG-NH2 [P1, piscidin 1]”, the IC50 [2] is given as 8.56 µM, the “Factor by which metallation with Cu^2+ increases efficacy, A549” value [3] is given as “≈ 2 fold” and the “Inhibition of MRC-5 cells” value [4] is given as ~ 45%. For the same compound, the “Factor by which metallation with Cu^2+ increases efficacy, MDA-MB-231” value ([5]; from average IC50 values, apo vs Cu^2+-bound, given as 'up to') was “≈ 2 fold”, the “Peptide concentration inducing drop in bilayer resistance (EIS)” value [6] was 0.2 µmol/L and the “Lipid oxidation (absorbance peak at 234 nm)” value [7] was “little lipid oxidation”. For the same compound, the “Survival, HGF-1” value [8] was greater than 90% and the “Survival, OMF” value [9] was greater than 90%.
FFHHIFRGIVHVGKTIHRLVTG-NH2 [P1-Cu^2+] gave an IC50 ([1]; MTS, 24 h treatment, triplicates, 95% confidence interval in parentheses, holo-forms metallated 1:1 with CuCl2, read-out: IC50, HT1080) of 5.31 µM, an IC50 [2] of 5.97 µM and an IC50 ([3]; MTT, 24 h treatment, triplicates, 95% CI in parentheses, holo-forms 1:1 CuCl2, read-out: IC50, A549) of 2.15 µM. It also gave an IC50 [10] of 2.17 µM.
In the case of “FIHHIFRGIVHAGRSIGRFLTG-NH2 [P3, piscidin 3]”, the IC50 ([1]; 24 h) is reported as 26 µM, the “Factor by which metallation with Cu^2+ increases efficacy, HT1080” value ([1]; from average IC50 values, apo vs Cu^2+-bound) is reported as “≈ 5 fold” and the IC50 ([3]; 24 h) is reported as 21.6 µM. The “Factor by which metallation with Cu^2+ increases efficacy, A549” value [3] was “≈ 7 fold”, the IC50 [5] was 17.5 µM and the “Peptide concentration inducing drop in bilayer resistance (EIS)” value [6] was 0.5 µmol/L. The “Lipid oxidation (absorbance peak at 234 nm)” value [7] was “little lipid oxidation”.
For FIHHIFRGIVHAGRSIGRFLTG-NH2 [P3-Cu^2+], the IC50 ([1]; 24 h) was 5.52 µM, the IC50 [2] was 8.62 µM and the IC50 ([3]; 24 h) was 2.99 µM. For the same compound, the IC50 [5] was 5.25 µM.
